Measured values: US12084437B2, “Halo-substituted piperidines as orexin receptor modulators” (AstraZeneca AB, priority 2016, dated 2024)

Key:
[1] = target: T1, OX2 (Homo sapiens, UniProt O43614); experiment: Orexin receptor cell-based functional assay, [Ca2+]i by FLIPR, CHO-OX2 cells; conditions: FLIPR calcium, antagonism of EC90 of [OX]
T1 construct: expressed in transfected cells; host or cells: CHO (CHO-OX2)
T1 sequence (O43614 1-444): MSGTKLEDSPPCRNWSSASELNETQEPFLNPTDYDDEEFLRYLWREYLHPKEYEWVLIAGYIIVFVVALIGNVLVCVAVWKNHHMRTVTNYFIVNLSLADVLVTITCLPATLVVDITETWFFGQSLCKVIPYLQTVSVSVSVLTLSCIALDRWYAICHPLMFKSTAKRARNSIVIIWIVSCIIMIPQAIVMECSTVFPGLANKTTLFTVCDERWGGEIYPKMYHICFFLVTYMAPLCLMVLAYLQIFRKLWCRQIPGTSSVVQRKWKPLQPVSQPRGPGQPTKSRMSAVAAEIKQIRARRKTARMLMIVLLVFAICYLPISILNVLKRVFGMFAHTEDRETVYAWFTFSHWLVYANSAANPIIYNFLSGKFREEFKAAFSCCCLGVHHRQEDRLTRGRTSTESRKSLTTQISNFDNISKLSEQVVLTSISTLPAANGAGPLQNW
How it was run: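 CHO cells expressing human OX1 or OX2 (20,000/well, grown overnight) were loaded with Calcium6 dye plus 2.5 mM probenecid for 2 h at 37 °C, then preincubated 30 min with compound (0.1 nM–10 µM). FLIPR fluorescence (ex 488/em 540 nm) was tracked before and after an EC90 orexin challenge.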

[2] = target: T2, OX1 (Homo sapiens, UniProt O43613); experiment: Orexin receptor cell-based functional assay, [Ca2+]i by FLIPR, CHO-OX1 cells; conditions: FLIPR calcium, antagonism of EC90 of [OX], read-out: OXI, IC50
T2 construct: expressed in transfected cells; host or cells: CHO (CHO-OX1)
T2 sequence (O43613 1-425): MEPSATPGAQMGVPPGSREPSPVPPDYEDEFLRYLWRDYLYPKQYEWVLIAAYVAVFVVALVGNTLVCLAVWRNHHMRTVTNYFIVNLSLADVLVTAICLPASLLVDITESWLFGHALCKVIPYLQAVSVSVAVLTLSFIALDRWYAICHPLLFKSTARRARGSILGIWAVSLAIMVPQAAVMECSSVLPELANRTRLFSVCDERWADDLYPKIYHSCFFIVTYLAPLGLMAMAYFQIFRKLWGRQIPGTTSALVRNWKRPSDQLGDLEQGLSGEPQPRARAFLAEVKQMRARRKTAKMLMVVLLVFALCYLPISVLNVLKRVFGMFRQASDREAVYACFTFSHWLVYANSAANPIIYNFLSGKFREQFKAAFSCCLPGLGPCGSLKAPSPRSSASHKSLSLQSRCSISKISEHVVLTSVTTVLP

Row | IC50 [1] [µM] | IC50 [2] [nM] | SMILES
1 | > 5 | 6 | Cc1ccc(-c2sc(C)nc2C(=O)N2CC(F)(F)C[C@@H](C)[C@H]2CNc2cnc(C(F)(F)F)cn2)cc1 [Compound 138]
2 | > 5 | 5 | Cc1ccnc(-c2sc(C)nc2C(=O)N2CC(F)(F)C[C@@H](C)[C@H]2CNc2cnc(C(F)(F)F)cn2)c1 [Compound 147]
3 | > 5 | 6 | Cc1ccc(-c2sc(C)nc2C(=O)N2CC(F)(F)C[C@@H](C)[C@H]2CNc2cnc(C(F)(F)F)cn2)nc1 [Compound 148]
4 | > 5 | 11 | COc1cccc(-c2sc(C)nc2C(=O)N2CC(F)(F)C[C@@H](C)[C@H]2CNc2cnc(C(F)(F)F)cn2)n1 [Compound 151]
5 | > 5 | 27 | Cc1ccc(-n2nccn2)c(C(=O)N2CC(F)(F)C[C@@H](C)[C@H]2CNc2cnc(C(F)(F)F)cn2)n1 [Compound 153]
6 | > 5 | 12 | C[C@@H]1CC(F)(F)CN(C(=O)c2cc(Cl)ccc2-n2nccn2)[C@@H]1CNc1cnc(C(F)(F)F)cn1 [Compound 154]
7 | > 5 | 186 | Cc1nc(C(=O)N2CC(F)(F)C[C@@H](C)[C@H]2CNc2cnc(C(F)(F)F)cn2)c(-c2ccccc2)o1 [Compound 157]
8 | > 5 | 5 | C[C@@H]1CC(F)(F)CN(C(=O)c2nn(C)cc2-c2ccccn2)[C@@H]1CNc1ccc(C(F)(F)F)cn1 [Compound 167]
9 | > 5 | 4 | Cc1ccc(-n2nccn2)c(C(=O)N2CC(F)(F)C[C@@H](C)[C@H]2CNc2ccc(C(F)(F)F)cn2)n1 [Compound 174]
10 | 0.17 | 6 | COc1ccc(-c2cn(C)nc2C(=O)N2CC(F)(F)C[C@@H](C)[C@H]2CNc2ccc(C(F)(F)F)cn2)cc1 [Compound 177]
11 | > 5 | 12 | Cc1ccc(-c2ncccn2)c(C(=O)N2CC(F)(F)C[C@@H](C)[C@H]2CNc2ccc(C(F)(F)F)cn2)n1 [Compound 183, ((2S,3R)-5,5-difluoro-3-methyl-2-(((5-(trifluoromethyl)pyridin-2-yl)amino)methyl)piperidin-1-yl)(6-methyl-3-(pyrimidin-2-yl)pyridin-2-yl)methanone]
12 | > 5 | 6 | Cc1ccc(-c2sc(C)nc2C(=O)N2CC(F)(F)C[C@@H](C)[C@H]2CNc2ccc(C(F)(F)F)cn2)cc1 [Compound 186]
13 | 3.7 | > 5000 | C[C@@H]1CC(F)(F)CN(C(=O)c2nc(C(F)(F)F)ccc2-n2nccn2)[C@@H]1CNc1ccc(C(F)(F)F)cn1 [Compound 203, (3-(2H-1,2,3-triazol-2-yl)-6-(trifluoromethyl)pyridin-2-yl)((2S,3R)-5,5-difluoro-3-methyl-2-(((5-(trifluoromethyl)pyridin-2-yl)amino)methyl)piperidin-1-yl)methanone]
14 | > 5 | 40 | Cc1ccc(-n2nccn2)c(C(=O)N2CC(F)(F)C[C@@H](C)[C@H]2COc2ccc(C(F)(F)F)cn2)n1 [Compound 204, ((2S,3R)-5,5-difluoro-3-methyl-2-(((5-(trifluoromethyl)pyridin-2-yl)oxy)methyl)piperidin-1-yl)(6-methyl-3-(2H-1,2,3-triazol-2-yl)pyridin-2-yl)methanone]
15 | > 5 | 52 | C[C@@H]1CC(F)(F)CN(C(=O)c2nn(C)cc2-c2ccc(F)cc2)[C@@H]1COc1ccc(C(F)(F)F)cn1 [Compound 205, ((2S,3R)-5,5-difluoro-3-methyl-2-(((5-(trifluoromethyl)pyridin-2-yl)oxy)methyl)piperidin-1-yl)(4-(4-fluorophenyl)-1-methyl-1H-pyrazol-3-yl)methanone]
16 | > 5 | 280 | C[C@@H]1CC(F)(F)CN(C(=O)c2cn(C)nc2-c2ccccc2)[C@@H]1COc1ncc(C(F)(F)F)cn1 [Compound 209]
17 | > 5 | 5 | Cc1ccc(-c2ncccn2)c(C(=O)N2CC(F)(F)C[C@@H](C)[C@H]2COc2ccc(C(F)(F)F)cn2)n1 [Compound 215, ((2S,3R)-5,5-difluoro-3-methyl-2-(((5-(trifluoromethyl)pyridin-2-yl)oxy)methyl)piperidin-1-yl)(6-methyl-3-(pyrimidin-2-yl)pyridin-2-yl)methanone]

The next lines start with the molecule.

Row | SMILES | IC50 [1] [µM] | IC50 [2] [nM]
18 | COc1cccc(-c2cn(C)nc2C(=O)N2CC(F)(F)C[C@@H](C)[C@H]2CNc2cnc(C(F)(F)F)cn2)n1 [Compound 136] | > 5 | 40
19 | Cc1cccc(-c2sc(C)nc2C(=O)N2CC(F)(F)C[C@@H](C)[C@H]2CNc2cnc(C(F)(F)F)cn2)c1 [Compound 139] | > 5 | 10
20 | COc1cccc(-c2sc(C)nc2C(=O)N2CC(F)(F)C[C@@H](C)[C@H]2CNc2cnc(C(F)(F)F)cn2)c1 [Compound 142] | > 5 | 4
21 | C[C@@H]1CC(F)(F)CN(C(=O)c2nn(C)cc2-c2cccnc2)[C@@H]1CNc1cnc(C(F)(F)F)cn1 [Compound 155] | > 5 | 38
22 | Cc1nc(C(=O)N2CC(F)(F)C[C@@H](C)[C@H]2CNc2cnc(C(F)(F)F)cn2)c(-c2cccnc2)o1 [Compound 156] | > 5 | > 1000
23 | C[C@@H]1CC(F)(F)CN(C(=O)c2cn(C)nc2-c2ccccn2)[C@@H]1CNc1cnc(C(F)(F)F)cn1 [Compound 158] | > 5 | 62
24 | C[C@@H]1CC(F)(F)CN(C(=O)c2cc(Cl)ccc2-c2nnn(C)n2)[C@@H]1CNc1cnc(C(F)(F)F)cn1 [Compound 161] | > 5 | 9
25 | C[C@@H]1CC(F)(F)CN(C(=O)c2nn(C)cc2-c2ccc(F)cc2)[C@@H]1CNc1ccc(C(F)(F)F)cn1 [Compound 169] | > 5 | 2
26 | Cc1ccc(-c2cn(C)nc2C(=O)N2CC(F)(F)C[C@@H](C)[C@H]2CNc2ccc(C(F)(F)F)cn2)cc1 [Compound 175] | 4.14 | 4
27 | Cc1cccc(-c2sc(C)nc2C(=O)N2CC(F)(F)C[C@@H](C)[C@H]2CNc2ccc(C(F)(F)F)cn2)c1 [Compound 187] | 3 | 7
28 | C[C@@H]1CC(F)(F)CN(C(=O)c2nn(C)cc2-c2ncccn2)[C@@H]1CNc1ccc(C(F)(F)F)cn1 [Compound 200, ((2S,3R)-5,5-difluoro-3-methyl-2-(((5-(trifluoromethyl)pyridin-2-yl)amino)methyl)piperidin-1-yl)(1-methyl-4-(pyrimidin-2-yl)-1H-pyrazol-3-yl)methanone] | > 5 | 4
29 | COc1ccc(-n2nccn2)c(C(=O)N2CC(F)(F)C[C@@H](C)[C@H]2CNc2ccc(C(F)(F)F)cn2)n1 [Compound 202, ((2S,3R)-5,5-difluoro-3-methyl-2-(((5-(trifluoromethyl)pyridin-2-yl)amino)methyl)piperidin-1-yl)(6-methoxy-3-(2H-1,2,3-triazol-2-yl)pyridin-2-yl)methanone] | > 5 | 150
30 | C[C@@H]1CC(F)(F)CN(C(=O)c2cc(Cl)ccc2-c2nnn(C)n2)[C@@H]1COc1ccc(C(F)(F)F)cn1 [Compound 216, (5-chloro-2-(2-methyl-2H-tetrazol-5-yl)phenyl)((2S,3R)-5,5-difluoro-3-methyl-2-(((5-(trifluoromethyl)pyridin-2-yl)oxy)methyl)piperidin-1-yl)methanone] | > 5 | 4
31 | C[C@@H]1CC(F)(F)CN(C(=O)c2nn(C)cc2-c2ncc(F)cn2)[C@@H]1CNc1ncc(C(F)(F)F)cn1 [Compound 217, ((2S,3R)-5,5-difluoro-3-methyl-2-(((5-(trifluoromethyl)pyrimidin-2-yl)amino)methyl)piperidin-1-yl)(4-(5-fluoropyrimidin-2-yl)-1-methyl-1H-pyrazol-3-yl)methanone] | > 5 | 4
32 | C[C@@H]1CC(F)(F)CN(C(=O)c2nn(C)cc2-c2ncc(Cl)cn2)[C@@H]1CNc1ncc(C(F)(F)F)cn1 [Compound 218, (4-(5-chloropyrimidin-2-yl)-1-methyl-1H-pyrazol-3-yl)((2S,3R)-5,5-difluoro-3-methyl-2-(((5-(trifluoromethyl)pyrimidin-2-yl)amino)methyl)piperidin-1-yl)methanone] | > 5 | 7
